{"source": "patent US20250092001A1", "about": "“NOVEL EXCITATORY AMINO ACID GLUTAMATE TRANSPORT MODULATORS AND METHODS USING THE SAME” (Drexel University, priority 2022, published 2025)", "key": {"[1]": {"system": "R6/2 mice (Huntington disease model)", "test": "Open field locomotion test", "type": "in vivo, mouse", "settings": "GTS467 2, 4, and 10 mg/kg", "experimental": "FIG. 9A depicts the results of a locomotion test. In the locomotion test of FIG. 9A, wildtype and R6/2 mice treated with vehicle or different doses of GTS467 (2, 4, and 10 mg/kg) or ceftriaxone (200 mg/kg) were subjected to the open field test to evaluate their locomotor abilities in a 44×44 cm and 43×43 cm square open field arena. Animals were placed individually in the open field arena and behavior was recorded for a period of 5 minutes under dim light and low noise conditions. Animal behavior was recorded using an overhead camera and the distance moved was recorded and quantified using the Noldus ethovision XT-14 software. FIG. 9B depicts the results of a memory task test. Referring to FIG. 9B, to test for memory impairment a novel object recognition assay was performed. A 44×44 cm square shaped open field arena was used to perform this test at week 12 and week 15. The behavioral evaluation was performed in 2 sets, each set having equal number of animals. […] The behavior was recorded under dim light and low noise conditions using an overhead camera. Cumulative duration with both the objects, total object exploration (sec), distance travelled (cm) was quantified using the Noldus ethovision XT 14 software. […]"}, "[2]": {"system": "PD rats", "test": "Elevated plus maze (EPM)", "type": "in vivo, rat", "settings": "male PD rats; 4 mg/kg; 10 min post treatment", "experimental": "Referring to FIGS. 11-13, in the elevated plus maze test, male PD rats were treated with either saline or GTS467 (4 mg/kg). 10 min post treatment, the rats were placed in the middle of the elevated plus maze (EPM). Time spent in closed and open arms were recorded for 5 min. Frequency of entries in open and close arms was recorded."}, "[3]": {"system": "NR2A, NR2B, NR1", "test": "Western blot of cortex and striatum of treated PD rats: NMDA receptor subunits", "type": "in vivo, rat", "experimental": "Cortex and striatum were separately collected, and homogenates were prepared. Homogenates were centrifuged to obtain the protein extract in membrane and cytoplasmic fraction. Protein was estimated for each individual samples. Protein lysates were mixed with 6× loading buffer (5:1 ratio) and were heated (95° C. for 5 min). 20 μg protein was loaded to Tris-Glycine Mini gel for separation at […] for 2 h. Separated proteins were transferred to a PVDF membrane. 3% BSA was used for blocking the nontarget proteins to avoid noise. Membrane was incubated with primary Ab overnight at 4° C. followed by secondary Ab incubation for 3 h at room temperature. The protein bands were detected using ECL methods. The bands were quantified using Image J software."}, "[4]": {"system": "Drosophila model of Huntington's disease", "test": "Larval olfactory associative learning test", "type": "in vivo", "settings": "Elav x Htt larvae; 3.53 nM GT467, […] GT511", "experimental": "FIG. 7A illustrates certain aspects of a larval olfactory associative learning used to test learning and memory. In FIG. 7A, larvae were trained with either a reinforcer solution containing sucrose (“LIN/SUC”) or a control of distilled water (“LIN/DW”). The trained larvae were then transferred to a dish having test odorant placed on one side and a control on the opposite side. […] The ΔRI (difference between LIN/SUC and LIN/DW performance scores) were then calculated for the high performers (FIG. 7B), low performers (FIG. 7C) and non-performers (FIG. 7D). […] Referring to FIG. 7A, Drosophila larvae were trained with either a reinforcer solution containing sucrose (“LIN/SUC”) or a control of distilled water (“LIN/DW”). The trained larvae were then transferred to a dish having test odorant placed on one side and a control on the opposite side. The ΔRI were then calculated for the high performers (FIG. 7B), low performers (FIG. 7C) and non-performers (FIG. 7D)."}, "[5]": {"system": "PD rats (unilaterally lesioned rodent model of PD)", "test": "5-Choice Serial Reaction Time Task (5CSRTT)", "type": "in vivo, rat", "settings": "compared to saline", "text": "FIG. 12 lists the training schedule for 5CSRTT (5-Choice Serial Reaction Time Task) assay with criteria for success, in accordance with some embodiments.\nFIG. 13: Schematic representation of the 5CSRTT assay, in accordance with some embodiments. Rats were trained to receive food reward for a correct nose poke response to a signal light (correct trial shown in arrow connecting 1 and 3). Incorrect trials (the arrows connecting 2/3 to 1) or omissions (the arrow connecting 4 to other boxes) results in time out indicated by darkness with no Cue lights. Trial resets with variable intertrial intervals. Nose pokes made during inter trial interval (ITI) are recorded as premature responses (PMR) that codes for impulsive behavior"}, "[6]": {"system": "Drosophila model of Huntington's Disease (Htt model)", "test": "Larval locomotion assay in Drosophila Huntington's disease model", "type": "in vivo", "settings": "third instar larvae; concentrations as low as two-fold below EC50 and one-fold below EC50", "text": "FIG. 6A illustrate certain aspects of a locomotion assay used to assay the locomotive activities. […] FIGS. 6B and 6C depict the results of the locomotion assay results of wild-type Drosophila (“WT”), as well as Drosophila of a Huntington's disease model treated with vehicle (“Veh”) or with various concentrations of two exemplary GLT-1 modulators. […] The Drosophila Htt model is produced by crossing UAS-Htt([…]) male flies with elav-Gal4 virgin female flies. Both fly strains were purchased from Bloomington Drosophila Stock Center (BDSC, Indiana, USA). […] Locomotion assays were conducted by transferring the third instar larvae of flies to agar plates (FIG. 6A) and counting the number of grid lines crossed in 30 seconds."}}, "data": [{"smiles": "COc1ccc(NC(=O)C(=O)NCC(c2ccccc2)N2CCN(C)CC2)cc1", "note": "(stereo not drawn) [GT467, N1-(4-methoxyphenyl)-N2-(2-(4-methylpiperazin-1-yl)-2-phenylethyl)oxalamide]", "values": [{"measurement": "Distance moved", "setting": "[1]", "result": "significantly increased"}, {"measurement": "Anxiety (time spent in open vs. closed arm of EPM)", "setting": "[2]", "result": "did not induce anxiety"}, {"measurement": "NR1 expression", "setting": "[3]; cortex (CRTX)", "result": "reduced in CRTX"}, {"measurement": "NR2A, 2B and NR1 expressions", "setting": "[3]; synaptic level", "result": "elevation of NR2A, 2B and NR1 expressions"}, {"measurement": "Olfactory learning performance (ΔRI)", "setting": "[4]", "result": "improved significantly"}, {"measurement": "Omissions (OM)", "setting": "[5]", "result": "trend towards reducing omissions"}, {"measurement": "Percentage of correct choices (CR), cognitive performance", "setting": "[5]", "result": "improves cognitive performance"}, {"measurement": "Premature responses (PMR), impulsivity", "setting": "[5]", "result": "reduces impulsivity"}, {"measurement": "Locomotor ability (grid lines crossed in 30 seconds)", "setting": "[6]", "result": "restores the Huntington's disease model flies' locomotor ability"}]}]}
